{"source": "patent US9901592B2", "about": "(priority 2008, dated 2018)", "key": {"[1]": {"test_system": "pneumococci", "assay": "microbe, parasite or virus in culture", "format": "cell-based, S. pneumoniae", "settings": "Streptococcus pneumoniae, pneumococci, L4 mutations (27)"}, "[2]": {"test_system": "N. meningitidis", "assay": "MIC, CLSI broth microdilution, invasive isolates", "format": "cell-based", "experimental": "Example. […] Colonization of the nasopharynx (NP) by NM can lead to invasive meningococcal disease. Chemoprophylaxis is used to eradicate NP colonization and prevent transmission to nonimmune contacts. […] 62 isolates (91.9% blood culture) of NM were collected from 29 medical centers in North and South America and Europe (1997-2008). […] Serological identification was performed for serogroups (SGs) B, C, Y and W135."}, "[3]": {"test_system": "intraphagocytic L. pneumophila ATCC 33153 (THP-1)", "format": "cell-based"}, "[4]": {"test_system": "S. pneumoniae", "assay": "microbe, parasite or virus in culture", "format": "cell-based", "settings": "for MIC: Streptococcus pneumoniae"}, "[5]": {"test_system": "S. pyogenes", "format": "cell-based", "parameters": "MIC: unit not given beside the values", "settings": "for MIC50 / MIC90: Streptococcus pyogenes, Macr-R"}, "[6]": {"test_system": "S. pyogenes 3029", "assay": "Intraperitoneal (IP) mouse infection model (ED50)", "format": "in vivo", "settings": "Streptococcus pyogenes, MAC-R S. pyogenes 3029"}, "[7]": {"test_system": "S. pneumoniae", "format": "cell-based"}, "[8]": {"test_system": "M. pneumoniae", "assay": "microbe, parasite or virus in culture", "format": "cell-based", "settings": "Mycoplasmoides pneumoniae"}, "[9]": {"test_system": "M. catarrhalis", "assay": "microbe, parasite or virus in culture", "format": "cell-based", "settings": "Moraxella catarrhalis"}, "[10]": {"test_system": "U. parvum", "assay": "MIC testing in 10B broth (colour change)", "format": "cell-based, Ureaplasma parvum", "settings": "U. parvum (10 isolates)"}, "[11]": {"settings": "Neisseria meningitidis, 62 N. meningitidis isolates"}}, "note": "Where two headings read alike, the source gives them in different places."}
{"smiles": "CC[C@H]1OC(=O)[C@H](C)[C@@H](O[C@H]2C[C@@](C)(OC)[C@@H](O)[C@H](C)O2)[C@H](C)[C@@H](O[C@@H]2O[C@H](C)C[C@H](N(C)C)[C@H]2O)[C@](C)(O)C[C@@H](C)CN(C)[C@H](C)[C@@H](O)[C@]1(C)O", "note": "[AZI, azithromycin]", "values": [{"measurement": "MIC50", "setting": "[1]", "result": "> 64", "unit": "µg/mL"}, {"measurement": "MIC90", "setting": "[1]", "result": "> 64", "unit": "µg/mL"}, {"measurement": "% Susc.", "setting": "[2]; CLSI (M100-S19, 2009) criteria", "result": 100.0, "unit": "%"}, {"measurement": "MIC", "setting": "[2]; [11]", "result": "0.015 to 0.12", "unit": "µg/mL"}, {"measurement": "MIC50", "setting": "[2]; [11]", "result": 0.06, "unit": "µg/mL"}, {"measurement": "MIC90", "setting": "[2]; [11]", "result": 0.12, "unit": "µg/mL"}, {"measurement": "Cs", "setting": "[3]; L. pneumophila ATCC 33153, 48 h", "result": 181, "unit": "×MIC"}, {"measurement": "Cs, static concentration", "setting": "[3]; intracellular L. pneumophila ATCC 33153", "result": 2.90, "unit": "mg/L"}, {"measurement": "strains with resistant clones / strains tested", "setting": "[4]; S. pneumoniae", "result": "3/4"}, {"measurement": "MIC", "setting": "[4]; read-out: Initial MIC, strain 1077 Macrolide-S, parent", "result": 0.03, "unit": "µg/mL"}, {"measurement": "MIC", "setting": "[4]; read-out: Initial MIC, strain 1635 Macrolide-R [erm(A)], parent", "result": 2, "unit": "µg/mL"}, {"measurement": "MIC", "setting": "[4]; read-out: Initial MIC, strain 3665 Macrolide-R [mef(A)], parent", "result": 8, "unit": "µg/mL"}, {"measurement": "MIC", "setting": "[4]; read-out: Initial MIC, strain 7127 Macrolide-S [S20N in L4, A105V in L22], parent", "result": 0.06, "unit": "µg/mL"}, {"measurement": "MIC", "setting": "[4]; read-out: MIC of parents of resistant clones, S. pneumoniae (CEM-101: 7 strains)", "result": "0.03 to 2", "unit": "µg/mL"}, {"measurement": "MIC", "setting": "[4]; read-out: Parental MICs, S. pneumoniae, 8 strains with varying resistotypes", "result": "0.03 to 8", "unit": "µg/mL"}, {"measurement": "MIC", "setting": "[4]; read-out: Selected Resistance MIC, strain 3665 Macrolide-R [mef(A)], after serial passages in the drug", "result": 16, "unit": "µg/mL"}, {"measurement": "MIC", "setting": "[4]; read-out: Selected Resistance MIC, strain 7127 Macrolide-S [S20N in L4, A105V in L22], after serial passages in the drug", "result": 0.5, "unit": "µg/mL"}, {"measurement": "days until resistant clones (MIC increase)", "setting": "[4]; daily passages, min. 14, max. 50", "result": "14 to 29", "unit": "days"}, {"measurement": "Retest MIC after 10 Antibiotic-free Subcultures", "setting": "[4]; strain 24 Macrolide-R [erm(B)], clone selected with CEM-101", "result": ">64", "unit": "µg/mL"}, {"measurement": "Retest MIC after 10 Antibiotic-free Subcultures", "setting": "[4]; strain 24 Macrolide-R [erm(B)], clone selected with TEL", "result": ">64", "unit": "µg/mL"}, {"measurement": "Retest MIC after 10 Antibiotic-free Subcultures", "setting": "[4]; strain 1076 Macrolide-R [erm(B)&mef(A)], clone selected with CEM-101", "result": ">64", "unit": "µg/mL"}, {"measurement": "Retest MIC after 10 Antibiotic-free Subcultures", "setting": "[4]; strain 1076 Macrolide-R [erm(B)&mef(A)], clone selected with TEL", "result": ">64", "unit": "µg/mL"}, {"measurement": "Retest MIC after 10 Antibiotic-free Subcultures", "setting": "[4]; strain 1077 Macrolide-S, clone selected with AZI", "result": ">64", "unit": "µg/mL"}, {"measurement": "Retest MIC after 10 Antibiotic-free Subcultures", "setting": "[4]; strain 1077 Macrolide-S, clone selected with CEM-101", "result": 0.03, "unit": "µg/mL"}, {"measurement": "Retest MIC after 10 Antibiotic-free Subcultures", "setting": "[4]; strain 1077 Macrolide-S, clone selected with CLN", "result": ">64", "unit": "µg/mL"}, {"measurement": "Retest MIC after 10 Antibiotic-free Subcultures", "setting": "[4]; strain 1077 Macrolide-S, clone selected with TEL", "result": ">64", "unit": "µg/mL"}, {"measurement": "Retest MIC after 10 Antibiotic-free Subcultures", "setting": "[4]; strain 1635 Macrolide-R [erm(A)], clone selected with AZI", "result": ">64", "unit": "µg/mL"}, {"measurement": "Retest MIC after 10 Antibiotic-free Subcultures", "setting": "[4]; strain 1635 Macrolide-R [erm(A)], clone selected with CEM-101", "result": 4, "unit": "µg/mL"}, {"measurement": "Retest MIC after 10 Antibiotic-free Subcultures", "setting": "[4]; strain 1635 Macrolide-R [erm(A)], clone selected with CLN", "result": 4, "unit": "µg/mL"}, {"measurement": "Retest MIC after 10 Antibiotic-free Subcultures", "setting": "[4]; strain 1635 Macrolide-R [erm(A)], clone selected with CLR", "result": ">64", "unit": "µg/mL"}, {"measurement": "Retest MIC after 10 Antibiotic-free Subcultures", "setting": "[4]; strain 2686 Macrolide-R [L4 mutation], clone selected with CEM-101", "result": ">64", "unit": "µg/mL"}, {"measurement": "Retest MIC after 10 Antibiotic-free Subcultures", "setting": "[4]; strain 2686 Macrolide-R [L4 mutation], clone selected with CLR", "result": ">64", "unit": "µg/mL"}, {"measurement": "Retest MIC after 10 Antibiotic-free Subcultures", "setting": "[4]; strain 2686 Macrolide-R [L4 mutation], clone selected with TEL", "result": ">64", "unit": "µg/mL"}, {"measurement": "Retest MIC after 10 Antibiotic-free Subcultures", "setting": "[4]; strain 3009 Macrolide-R [23SrRNA mutation], clone selected with CEM-101", "result": ">64", "unit": "µg/mL"}, {"measurement": "Retest MIC after 10 Antibiotic-free Subcultures", "setting": "[4]; strain 3009 Macrolide-R [23SrRNA mutation], clone selected with CLR", "result": ">64", "unit": "µg/mL"}, {"measurement": "Retest MIC after 10 Antibiotic-free Subcultures", "setting": "[4]; strain 3665 Macrolide-R [mef(A)], clone selected with CEM-101", "result": 16, "unit": "µg/mL"}, {"measurement": "Retest MIC after 10 Antibiotic-free Subcultures", "setting": "[4]; strain 3665 Macrolide-R [mef(A)], clone selected with CLR", "result": 8, "unit": "µg/mL"}, {"measurement": "Retest MIC after 10 Antibiotic-free Subcultures", "setting": "[4]; strain 3665 Macrolide-R [mef(A)], clone selected with TEL", "result": 4, "unit": "µg/mL"}, {"measurement": "Retest MIC after 10 Antibiotic-free Subcultures", "setting": "[4]; strain 7127 Macrolide-S [S20N in L4, A105V in L22], clone selected with AZI", "result": 1, "unit": "µg/mL"}, {"measurement": "Retest MIC after 10 Antibiotic-free Subcultures", "setting": "[4]; strain 7127 Macrolide-S [S20N in L4, A105V in L22], clone selected with CEM-101", "result": 0.06, "unit": "µg/mL"}, {"measurement": "Retest MIC after 10 Antibiotic-free Subcultures", "setting": "[4]; strain 7127 Macrolide-S [S20N in L4, A105V in L22], clone selected with CLN", "result": 0.03, "unit": "µg/mL"}, {"measurement": "Retest MIC after 10 Antibiotic-free Subcultures", "setting": "[4]; strain 7127 Macrolide-S [S20N in L4, A105V in L22], clone selected with CLR", "result": ">64", "unit": "µg/mL"}, {"measurement": "Retest MIC after 10 Antibiotic-free Subcultures", "setting": "[4]; strain 7127 Macrolide-S [S20N in L4, A105V in L22], clone selected with TEL", "result": 0.06, "unit": "µg/mL"}, {"measurement": "MIC", "setting": "[5]; MAC-R S. pyogenes 3029", "result": "(>64)"}, {"measurement": "MIC50", "setting": "[5]; S. pyogenes TEL R, 10 strains", "result": "> 32", "unit": "µg/mL"}, {"measurement": "MIC90", "setting": "[5]; S. pyogenes TEL R, 10 strains", "result": "> 32", "unit": "µg/mL"}, {"measurement": "MIC50", "setting": "[5]; S. pyogenes TEL S, 30 strains", "result": "> 32", "unit": "µg/mL"}, {"measurement": "MIC90", "setting": "[5]; S. pyogenes TEL S, 30 strains", "result": "> 32", "unit": "µg/mL"}, {"measurement": "ED50", "setting": "[6]", "result": "> 150", "unit": "mg/kg"}, {"measurement": "single step mutation frequency", "setting": "[7]; strain 1077 Macrolide-S, 2 × MIC", "result": "7.2 × 10^−9"}, {"measurement": "single step mutation frequency", "setting": "[7]; strain 1077 Macrolide-S, 4 × MIC", "result": "<1.9 × 10^−10"}, {"measurement": "single step mutation frequency", "setting": "[7]; strain 1077 Macrolide-S, 8 × MIC", "result": "<1.9 × 10^−10"}, {"measurement": "single step mutation frequency", "setting": "[7]; strain 1635 Macrolide-R [erm(A)], 2 × MIC", "result": "<2.0 × 10^−10"}, {"measurement": "single step mutation frequency", "setting": "[7]; strain 1635 Macrolide-R [erm(A)], 4 × MIC", "result": "<2.0 × 10^−10"}, {"measurement": "single step mutation frequency", "setting": "[7]; strain 1635 Macrolide-R [erm(A)], 8 × MIC", "result": "<2.0 × 10^−10"}, {"measurement": "single step mutation frequency", "setting": "[7]; strain 7127 Macrolide-S [S20N in L4, A105V in L22], 2 × MIC", "result": "<2.0 × 10^−10"}, {"measurement": "single step mutation frequency", "setting": "[7]; strain 7127 Macrolide-S [S20N in L4, A105V in L22], 4 × MIC", "result": "<2.0 × 10^−10"}, {"measurement": "single step mutation frequency", "setting": "[7]; strain 7127 Macrolide-S [S20N in L4, A105V in L22], 8 × MIC", "result": "<2.0 × 10^−10"}, {"measurement": "MIC50", "setting": "[8]", "result": 0.25, "unit": "ng/mL"}, {"measurement": "MIC90", "setting": "[8]", "result": 0.5, "unit": "ng/mL"}, {"measurement": "MIC90", "setting": "[9]", "result": 0.06, "unit": "µg/mL"}, {"measurement": "MIC Range", "setting": "[10]", "result": "0.5 to 4", "unit": "µg/mL"}, {"measurement": "MIC50", "setting": "[10]; Ureaplasma parvum, read-out: MIC50", "result": 2, "unit": "µg/mL"}, {"measurement": "MIC90", "setting": "[10]; Ureaplasma parvum, read-out: MIC90", "result": 4, "unit": "µg/mL"}]}
